These compounds were tested on RS4;11 cells (assay: Cell viability assay (CellTiter-Glo) in RS4;11 cells). Details: Homo sapiens, 72 h; RS4;11 cells; cell viability, 3 days, CellTiter-Glo; read-out: IC50.
Assay type: cell-based
Summary of the method: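 RS4;11 cells seeded at 5000 per well, exposed for 3 days to 8- or 12-point 3-fold serial dilutions. Viability read by CellTiter-Glo luminescence; IC50 fitted by nonlinear least-squares regression.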

IC50 [µM]	SMILES
> 10	CS(=O)(=O)c1ccc(-c2cccc3nc(Nc4ccc(N5CCN(CC(=O)NCCOCCOCCOCCOCCNc6ccc7c(c6)C(=O)N(C6CCC(=O)NC6=O)C7=O)CC5)cc4)nn23)cc1 (stereo not shown) [JA-206, N-(14-((2-(2,6-Dioxopiperidin-3-yl)-1,3-dioxoisoindolin-5-yl)amino)-3,6,9,12-tetraoxatetradecyl)-2-(4-(4-((5-(4-(methylsulfonyl)phenyl)-[1,2,4]triazolo[1,5-a]pyridin-2-yl)amino)phenyl)piperazin-1-yl)acetamide]
0.0328	CS(=O)(=O)c1ccc(-c2cccc3nc(Nc4ccc(N5CCN(C(=O)CCCCCOc6ccc7c(c6)CN(C6CCC(=O)NC6=O)C7=O)CC5)cc4)nn23)cc1 (stereo not shown) [JA-261, 3-(5-((6-(4-(4-((5-(4-(methylsulfonyl)phenyl)-[1,2,4]triazolo[1,5-a]pyridin-2-yl)amino)phenyl)piperazin-1-yl)-6-oxohexyl)oxy)-1-oxoisoindolin-2-yl)piperidine-2,6-dione]
> 10	Cc1ncsc1-c1ccc(CNC(=O)[C@@H]2C[C@@H](O)CN2C(=O)[C@@H](NC(=O)CCOCCOCCNC(=O)CN2CCN(c3ccc(Nc4nc5cccc(-c6ccc(S(C)(=O)=O)cc6)n5n4)cc3)CC2)C(C)(C)C)cc1 [JA-135, (2S,4R)-1-((S)-14-(tert-Butyl)-1-(4-(4-((5-(4-(methylsulfonyl)phenyl)-[1,2,4]triazolo[1,5-a]pyridin-2-yl)amino)phenyl)piperazin-1-yl)-2,12-dioxo-6,9-dioxa-3,13-diazapentadecan-15-oyl)-4-hydroxy-N-(4-(4-methylthiazol-5-yl)benzyl)pyrrolidine-2-carboxamide]
> 10	O=C1CCC(N2C(=O)c3ccc(NCCCC(=O)N4CCC(n5cc(-c6cnc7cccc(-c8cc(F)c(CN9CCOCC9)c(F)c8)c7n6)cn5)CC4)cc3C2=O)C(=O)N1 (stereo not shown) [JA-192, 5-((4-(4-(4-(8-(3,5-Difluoro-4-(morpholinomethyl)phenyl)quinoxalin-2-yl)-1H-pyrazol-1-yl)piperidin-1-yl)-4-oxobutyl)amino)-2-(2,6-dioxopiperidin-3-yl)isoindoline-1,3-dione]
3.04	CS(=O)(=O)c1ccc(-c2cccc3nc(Nc4ccc(N5CCN(C(=O)CCCCNc6cccc7c6C(=O)N(C6CCC(=O)NC6=O)C7=O)CC5)cc4)nn23)cc1 (stereo not shown) [JA-011, 2-(2,6-Dioxo-piperidin-3-yl)-4-[5-(4-{4-[5-(4-methanesulfonyl-phenyl)-[1,2,4]triazolo[1,5-a]pyridin-2-ylamino]-phenyl}-piperazin-1-yl)-5-oxo-pentylamino]-isoindole-1,3-dione]
> 10	O=C1CCC(N2Cc3ccc(C#CCCCCC(=O)N4CCC(n5cc(-c6cnc7cccc(-c8cc(F)c(CN9CCOCC9)c(F)c8)c7n6)cn5)CC4)cc3C2=O)C(=O)N1 (stereo not shown) [JA-259, 3-(6-(7-(4-(4-(8-(3,5-Difluoro-4-(morpholinomethyl)phenyl)quinoxalin-2-yl)-1H-pyrazol-1-yl)piperidin-1-yl)-7-oxohept-1-yn-1-yl)-1-oxoisoindolin-2-yl)piperidine-2,6-dione]
3.41	CS(=O)(=O)c1ccc(-c2cccc3nc(Nc4ccc(N5CCN(C(=O)CCCNc6ccc7c(c6)C(=O)N(C6CCC(=O)NC6=O)C7=O)CC5)cc4)nn23)cc1 (stereo not shown) [JA-216, 2-(2,6-Dioxopiperidin-3-yl)-5-((4-(4-(4-((5-(4-(methylsulfonyl)phenyl)-[1,2,4]triazolo[1,5-a]pyridin-2-yl)amino)phenyl)piperazin-1-yl)-4-oxobutyl)amino)isoindoline-1,3-dione]
> 10	Cc1cnc(Nc2ccc(N3CCN(C(=O)CCCCCCCNc4cccc5c4C(=O)N(C4CCC(=O)NC4=O)C5=O)CC3)cc2)nc1Nc1cccc(S(=O)(=O)NC(C)(C)C)c1 (stereo not shown) [JA-016, N-(tert-Butyl)-3-((2-((4-(4-(8-((2-(2,6-dioxopiperidin-3-yl)-1,3-dioxoisoindolin-4-yl)amino)octanoyl)piperazin-1-yl)phenyl)amino)-5-methylpyrimidin-4-yl)amino)benzenesulfonamide]
1.44	CS(=O)(=O)c1ccc(-c2cccc3nc(Nc4ccc(N5CCN(CC(=O)NCCNc6cccc7c6C(=O)N(C6CCC(=O)NC6=O)C7=O)CC5)cc4)nn23)cc1 (stereo not shown) [JA-117, N-(2-((2-(2,6-Dioxopiperidin-3-yl)-1,3-dioxoisoindolin-4-yl)amino)ethyl)-2-(4-(4-((5-(4-(methylsulfonyl)phenyl)-[1,2,4]triazolo[1,5-a]pyridin-2-yl)amino)phenyl)piperazin-1-yl)acetamide]
0.157	O=C1CCC(N2Cc3cc(C#CCCCCC(=O)N4CCC(n5cc(-c6cnc7cccc(-c8cc(F)c(CN9CCOCC9)c(F)c8)c7n6)cn5)CC4)ccc3C2=O)C(=O)N1 (stereo not shown) [JA-271, 3-(5-(7-(4-(4-(8-(3,5-Difluoro-4-(morpholinomethyl)phenyl)quinoxalin-2-yl)-1H-pyrazol-1-yl)piperidin-1-yl)-7-oxohept-1-yn-1-yl)-1-oxoisoindolin-2-yl)piperidine-2,6-dione]
2.75	Cc1ncsc1-c1ccc(CNC(=O)[C@@H]2C[C@@H](O)CN2C(=O)[C@@H](NC(=O)CCOCCOCCC(=O)N2CCN(c3ccc(Nc4nc5cccc(-c6ccc(S(C)(=O)=O)cc6)n5n4)cc3)CC2)C(C)(C)C)cc1 [JA-070, (2S,4R)-1-((S)-3,3-Dimethyl-2-(3-(2-(3-(4-(4-((5-(4-(methylsulfonyl)phenyl)-[1,2,4]triazolo[1,5-a]pyridin-2-yl)amino)phenyl)piperazin-1-yl)-3-oxopropoxy)ethoxy)propanamido)butanoyl)-4-hydroxy-N-(4-(4-methylthiazol-5-yl)benzyl)pyrrolidine-2-carboxamide]
0.298	CS(=O)(=O)c1ccc(-c2cccc3nc(Nc4ccc(N5CCN(CCCCCCCc6ccc7c(c6)C(=O)N(C6CCC(=O)NC6=O)C7=O)CC5)cc4)nn23)cc1 (stereo not shown) [JA-253, 2-(2,6-Dioxopiperidin-3-yl)-5-(7-(4-(4-((5-(4-(methylsulfonyl)phenyl)-[1,2,4]triazolo[1,5-a]pyridin-2-yl)amino)phenyl)piperazin-1-yl)heptyl)isoindoline-1,3-dione]
4.31	Cc1ncsc1-c1ccc(CNC(=O)[C@@H]2C[C@@H](O)CN2C(=O)[C@@H](NC(=O)COCCOCCNC(=O)CN2CCN(c3ccc(Nc4nc5cccc(-c6ccc(S(C)(=O)=O)cc6)n5n4)cc3)CC2)C(C)(C)C)cc1 [JA-134, (2S,4R)-1-((S)-2-(tert-Butyl)-14-(4-(4-((5-(4-(methylsulfonyl)phenyl)-[1,2,4]triazolo[1,5-a]pyridin-2-yl)amino)phenyl)piperazin-1-yl)-4,13-dioxo-6,9-dioxa-3,12-diazatetradecanoyl)-4-hydroxy-N-(4-(4-methylthiazol-5-yl)benzyl)pyrrolidine-2-carboxamide]
0.447	CS(=O)(=O)c1ccc(-c2cccc3nc(Nc4ccc(N5CCN(C(=O)CCCCCOc6ccc7c(c6)C(=O)N(C6CCC(=O)NC6=O)C7)CC5)cc4)nn23)cc1 (stereo not shown) [JA-277, 3-(6-((6-(4-(4-((5-(4-(Methylsulfonyl)phenyl)-[1,2,4]triazolo[1,5-a]pyridin-2-yl)amino)phenyl)piperazin-1-yl)-6-oxohexyl)oxy)-1-oxoisoindolin-2-yl)piperidine-2,6-dione]
> 10	O=C(CN1CCC(n2cc(-c3cnc4cccc(-c5cc(F)c(CN6CCOCC6)c(F)c5)c4n3)cn2)CC1)NCCOCCOCCNc1ccc2c(c1)C(=O)N(C1CCC(=O)NC1=O)C2=O (stereo not shown) [JA-170, 2-(4-(4-(8-(3,5-Difluoro-4-(morpholinomethyl)phenyl)quinoxalin-2-yl)-1H-pyrazol-1-yl)piperidin-1-yl)-N-(2-(2-(2-((2-(2,6-dioxopiperidin-3-yl)-1,3-dioxoisoindolin-5-yl)amino)ethoxy)ethoxy)ethyl)acetamide]
> 10	Cc1ncsc1-c1ccc(CNC(=O)[C@@H]2C[C@@H](O)CN2C(=O)[C@@H](NC(=O)CCNC(=O)CN2CCN(c3ccc(Nc4nc5cccc(-c6ccc(S(C)(=O)=O)cc6)n5n4)cc3)CC2)C(C)(C)C)cc1 [JA-119, (2S,4R)-1-((S)-3,3-Dimethyl-2-(3-(2-(4-(4-((5-(4-(methylsulfonyl)phenyl)-[1,2,4]triazolo[1,5-a]pyridin-2-yl)amino)phenyl)piperazin-1-yl)acetamido)propanamido)butanoyl)-4-hydroxy-N-(4-(4-methylthiazol-5-yl)benzyl)pyrrolidine-2-carboxamide]
> 10	Cc1ncsc1-c1ccc(CNC(=O)[C@@H]2C[C@@H](O)CN2C(=O)[C@@H](NC(=O)CCOCCOCCC(=O)N2CCC(n3cc(-c4cnc5cccc(-c6cc(F)c(CN7CCOCC7)c(F)c6)c5n4)cn3)CC2)C(C)(C)C)cc1 [JA-056, (2S,4R)-1-[(2S)-2-[3-[2-[3-[4-[4-[8-[3,5-Difluoro-4-(morpholinomethyl)phenyl]quinoxalin-2-yl]pyrazol-1-yl]-1-piperidyl]-3-oxo-propoxy]ethoxy]propanoylamino]-3,3-dimethyl-butanoyl]-4-hydroxy-N-[[4-(4-methylthiazol-5-yl)phenyl]methyl]pyrrolidine-2-carboxamide]
> 10	Cc1cnc(Nc2ccc(N3CCN(C(=O)CCCCC(=O)N[C@H](C(=O)N4C[C@H](O)C[C@H]4C(=O)NCc4ccc(-c5scnc5C)cc4)C(C)(C)C)CC3)cc2)nc1Nc1cccc(S(=O)(=O)NC(C)(C)C)c1 [JA-024, (2S,4R)-1-((S)-2-(6-(4-(4-((4-((3-(N-(tert-Butyl)sulfamoyl)phenyl)amino)-5-methylpyrimidin-2-yl)amino)phenyl)piperazin-1-yl)-6-oxohexanamido)-3,3-dimethylbutanoyl)-4-hydroxy-N-(4-(4-methylthiazol-5-yl)benzyl)pyrrolidine-2-carboxamide]
2.39	O=C(CN1CCC(n2cc(-c3cnc4cccc(-c5cc(F)c(CN6CCOCC6)c(F)c5)c4n3)cn2)CC1)NCCNc1cccc2c1C(=O)N(C1CCC(=O)NC1=O)C2=O (stereo not shown) [JA-144, 2-[4-[4-[8-[3,5-Difluoro-4-(morpholinomethyl)phenyl]quinoxalin-2-yl]pyrazol-1-yl]-1-piperidyl]-N-[2-[[2-(2,6-dioxo-3-piperidyl)-1,3-dioxo-isoindolin-4-yl]amino]ethyl]acetamide]

— patent publication US20230093099A1, “COMPOUNDS AND METHODS OF TREATING CANCERS” (CULLGEN (SHANGHAI), INC., priority 2019, published 2023)
